# Measurements taken from article PMC4453034, “A functional comparison of the domestic cat bitter receptors Tas2r38 and Tas2r43 with their human orthologs” (BMC Neuroscience, 2015).
# Entries after “also recorded” stand apart in the source; their conditions may differ. Where a name gives a salt, the structure may show the parent alone. Read-outs that look alike come from different tables or passages of the source.
# Assays:
# human TAS2R43 [1] = biological target: T1, human TAS2R43 (Homo sapiens, UniProt P59537); design: created similarly, expressing full-length receptor under the control of a CMV promoter; expressed in transfected cells; host or cells: mammalian cells (ATCC CRL-11268), co-transfected with Gα16-gust44; conditions: published value for human TAS2R43; cited from earlier work
# T1 sequence (P59537 1-309): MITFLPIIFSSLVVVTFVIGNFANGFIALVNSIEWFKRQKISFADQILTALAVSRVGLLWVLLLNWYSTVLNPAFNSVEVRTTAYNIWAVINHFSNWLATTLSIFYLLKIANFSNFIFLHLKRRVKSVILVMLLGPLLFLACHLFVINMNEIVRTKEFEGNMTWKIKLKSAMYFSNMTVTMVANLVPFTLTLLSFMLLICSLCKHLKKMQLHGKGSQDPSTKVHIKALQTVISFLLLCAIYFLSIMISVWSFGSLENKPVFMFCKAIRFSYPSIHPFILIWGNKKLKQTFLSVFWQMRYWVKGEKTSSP
# human TAS2R43 [2] = biological target: T1, human TAS2R43; test: Ca2+ flux assay, transiently transfected cells with Gα16-gust44; conditions: for calcium flux response of human TAS2R43: PTC 100 μM, C4-HSL, aloin 300 μM, denatonium 1 mM, saccharin 6.7 mM; for Hill Slope TAS2R43 human: calcium flux dose response
# cat Tas2r43 [3] = biological target: cat Tas2r43 (Felis catus, UniProt A0ABI8A390); test: as above; conditions: for calcium flux response of cat Tas2r43: PTC 100 μM, aloin 300 μM, denatonium 1 mM, saccharin 6.7 mM; for Hill Slope Tas2r43 cat: calcium flux dose response
# cat Tas2r43 (Felis catus, UniProt A0ABI8A390), sequence (A0ABI8A390 entry or part of it): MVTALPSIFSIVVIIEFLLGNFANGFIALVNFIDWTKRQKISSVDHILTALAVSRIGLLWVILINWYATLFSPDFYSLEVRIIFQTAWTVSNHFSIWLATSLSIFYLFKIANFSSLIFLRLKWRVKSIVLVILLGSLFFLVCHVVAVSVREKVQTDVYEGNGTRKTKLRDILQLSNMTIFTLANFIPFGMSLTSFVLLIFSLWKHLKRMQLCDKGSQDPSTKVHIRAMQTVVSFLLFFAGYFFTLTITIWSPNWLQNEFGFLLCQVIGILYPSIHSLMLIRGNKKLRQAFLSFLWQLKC
# cat Tas2r43 [4] = test: as above; conditions: PTC 100 μM, aloin 300 μM, denatonium 1 mM, saccharin 6.7 mM
# human TAS2R16 = biological target: T2, human TAS2R16 (Homo sapiens, UniProt Q9NYV7); test: Ca2+ flux assay, negative control receptor; conditions: PTC 100 μM, C4-HSL
# T2 sequence (Q9NYV7 1-291): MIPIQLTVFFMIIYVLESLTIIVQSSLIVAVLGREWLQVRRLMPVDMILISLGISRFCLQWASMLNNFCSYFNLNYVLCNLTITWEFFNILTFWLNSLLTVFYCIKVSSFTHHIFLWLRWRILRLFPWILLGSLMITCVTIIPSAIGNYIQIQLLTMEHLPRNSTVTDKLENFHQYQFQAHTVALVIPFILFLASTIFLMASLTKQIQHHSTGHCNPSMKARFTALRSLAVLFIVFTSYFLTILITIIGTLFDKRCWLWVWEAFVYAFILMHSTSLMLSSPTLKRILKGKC
# human TAS2R38 [5] = biological target: T3, human TAS2R38 (Homo sapiens, UniProt P59533); test: Ca2+ flux assay, transiently transfected cells with Gα16-gust44; conditions: for calcium flux response of human TAS2R38: PTC 100 μM, PROP 30 μM, C4-HSL 200 μM; for Hill Slope TAS2R38 human: calcium flux dose response
# T3 sequence (P59533 1-333): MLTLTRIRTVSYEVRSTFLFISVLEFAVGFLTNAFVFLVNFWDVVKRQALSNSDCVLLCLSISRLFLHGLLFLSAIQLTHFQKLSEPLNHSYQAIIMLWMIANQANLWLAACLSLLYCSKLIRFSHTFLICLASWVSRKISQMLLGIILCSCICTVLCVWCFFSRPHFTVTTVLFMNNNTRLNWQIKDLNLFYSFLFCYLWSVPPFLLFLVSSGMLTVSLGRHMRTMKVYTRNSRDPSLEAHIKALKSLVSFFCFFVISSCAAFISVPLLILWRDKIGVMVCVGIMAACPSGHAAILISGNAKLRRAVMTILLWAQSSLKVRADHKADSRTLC
# human TAS2R38 [6] = biological target: T3, human TAS2R38; design: created similarly, expressing full-length receptor under the control of a CMV promoter; expressed in transfected cells; host or cells: mammalian cells (ATCC CRL-11268), co-transfected with Gα16-gust44; method as in PMID 15723792; conditions: published value for human TAS2R38; cited from earlier work
# cat Tas2r38 = biological target: T4, cat Tas2r38 (Felis catus, UniProt Z9BUK5U3L3); test: Ca2+ flux assay, transiently transfected cells with Gα16-gust44; conditions: for calcium flux response of cat Tas2r38: PTC 100 μM, PROP 30 μM, C4-HSL 200 μM
# T4 sequence (Z9BUK5U3L3 1-334): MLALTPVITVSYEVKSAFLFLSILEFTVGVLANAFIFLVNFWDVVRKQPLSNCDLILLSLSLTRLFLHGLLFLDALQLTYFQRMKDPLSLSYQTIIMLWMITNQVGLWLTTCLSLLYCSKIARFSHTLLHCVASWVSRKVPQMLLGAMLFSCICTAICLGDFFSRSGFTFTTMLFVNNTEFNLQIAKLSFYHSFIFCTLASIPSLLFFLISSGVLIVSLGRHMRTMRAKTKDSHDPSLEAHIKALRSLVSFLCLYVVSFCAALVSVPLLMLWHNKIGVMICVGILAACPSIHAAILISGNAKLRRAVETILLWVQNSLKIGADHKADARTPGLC
# human TAS2R31 = biological target: T5, human TAS2R31 (Homo sapiens, UniProt P59538); test: Ca2+ flux assay, probenecid specificity control; type: cell-based; conditions: 1 mM probenecid, one hour pre-incubation
# T5 construct: expressed in transfected cells; host or cells: transiently transfected cells expressing the receptor and Gα16-gust44
# T5 sequence (P59538 1-309): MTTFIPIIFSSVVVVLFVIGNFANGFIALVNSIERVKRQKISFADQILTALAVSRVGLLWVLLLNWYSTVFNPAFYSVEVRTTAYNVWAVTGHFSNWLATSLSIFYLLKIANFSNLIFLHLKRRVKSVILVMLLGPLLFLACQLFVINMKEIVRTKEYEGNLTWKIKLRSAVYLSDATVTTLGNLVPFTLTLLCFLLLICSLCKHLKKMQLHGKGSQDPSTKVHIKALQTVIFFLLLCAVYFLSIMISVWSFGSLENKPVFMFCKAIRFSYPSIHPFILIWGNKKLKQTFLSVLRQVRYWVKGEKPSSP
# [7] = 1 mM probenecid, one hour pre-incubation, 300 μM aloin
# [8] = 1 mM probenecid, one hour pre-incubation, 1 mM denatonium
# [9] = 1 mM probenecid, one hour pre-incubation, 33 μM PTC
compound,measurement,setting,value
"CC[N+](CC)(CC(=O)Nc1c(C)cccc1C)Cc1ccccc1 [Denatonium, denatonium benzoate]",EC50,human TAS2R43 [1],300 µM
same,EC50,human TAS2R43 [2],1210 µM
same,calcium flux response of human TAS2R43,human TAS2R43 [2],responded
same,Hill Slope TAS2R43 human,human TAS2R43 [2],1.3
same,calcium flux response of cat Tas2r43,cat Tas2r43 [3],responded
same,Hill Slope Tas2r43 cat,cat Tas2r43 [3],1.7
same,"fold lower EC50, cat Tas2r43 vs human TAS2R43",cat Tas2r43 [3]; from EC50 values,greater than 5 fold
"O=C1c2c(O)cccc2C([C@@H]2O[C@H](CO)[C@@H](O)[C@H](O)[C@H]2O)c2cc(CO)cc(O)c21 (stereo partly shown) [Aloin, aloin]",EC50,human TAS2R43 [1],1.2 µM
same,EC50,human TAS2R43 [2],35 µM
same,calcium flux response of human TAS2R43,human TAS2R43 [2],responded
same,Hill Slope TAS2R43 human,human TAS2R43 [2],0.8
same,calcium flux response of cat Tas2r43,cat Tas2r43 [3],responded
same,Hill Slope Tas2r43 cat,cat Tas2r43 [3],1.0
same,"fold more sensitive, human TAS2R43 vs cat Tas2r43",cat Tas2r43 [3]; from EC50 values,about 10 fold
"O=C1NS(=O)(=O)c2ccccc21 [Saccharin, saccharin sodium salt hydrate]",calcium flux response of cat Tas2r43,cat Tas2r43 [4],did not elicit a response
"NC(=S)Nc1ccccc1 [PTC, phenylthiocarbamide]",calcium flux response of human TAS2R43,human TAS2R43 [2],did not respond
same,calcium flux response of human TAS2R16,human TAS2R16,did not respond
same,calcium flux response of cat Tas2r43,cat Tas2r43 [4],did not respond
same,EC50,human TAS2R38 [5],2.3 µM
same,calcium flux response of human TAS2R38,human TAS2R38 [5],strong calcium flux
same,peak fluorescence over baseline,human TAS2R38 [5]; PTC at 100 μM,27%
same,Hill Slope TAS2R38 human,human TAS2R38 [5],1.0
same,EC50,human TAS2R38 [6],1.1 µM
same,calcium flux response of cat Tas2r38,cat Tas2r38,strong calcium flux
same,peak fluorescence over baseline,cat Tas2r38; PTC at 100 μM,40%
same,Hill Slope Tas2r38 cat,cat Tas2r38; calcium flux dose response,2.6
same,"fold less concentration sensitive, cat Tas2r38 vs human TAS2R38",cat Tas2r38; from EC50 values,at least 10 fold
same,EC50,"cat Tas2r38; read-out: EC50 Tas2r38 cat, calcium flux dose response, 22 h post-transfection",47 µM
CCCN(CCC)S(=O)(=O)c1ccc(C(=O)O)cc1 [probenecid],probenecid effect on human TAS2R43 response to aloin,human TAS2R43 [2]; [7],inhibited
same,probenecid effect on human TAS2R43 response to denatonium,human TAS2R43 [2]; [8],inhibited
same,probenecid effect on human TAS2R31 response to saccharin,human TAS2R31,stimulation of flux
same,probenecid effect on cat Tas2r43 response to aloin,cat Tas2r43 [3]; [7],inhibited
same,probenecid effect on cat Tas2r43 response to denatonium,cat Tas2r43 [3]; [8],inhibited
same,probenecid effect on human TAS2R38 response to PTC,human TAS2R38 [5]; [9],failed to induce a calcium flux; also recorded: inhibited completely
same,probenecid effect on cat Tas2r38 response to PTC,cat Tas2r38; [9],failed to induce a calcium flux; also recorded: inhibited completely
CCCC(=O)N[C@H]1CCOC1=O [C4-HSL],calcium flux response of human TAS2R43,human TAS2R43 [2],no response
same,calcium flux response of human TAS2R16,human TAS2R16,no response
same,calcium flux response of human TAS2R38,human TAS2R38 [5],responded weakly but specifically
same,calcium flux response of cat Tas2r38,cat Tas2r38,responded weakly but specifically
"CCCc1cc(=O)[nH]c(=S)[nH]1 [PROP, 6-propyl-2-thiouracil]",EC50,human TAS2R38 [5],2.2 µM
same,calcium flux response of human TAS2R38,human TAS2R38 [5],responded
same,Hill Slope TAS2R38 human,human TAS2R38 [5],1.59
same,EC50,human TAS2R38 [6],2.1 µM
